Patent publication US12465585B2, “Compositions for the management of seizure induced neurotoxicity” (SAMI-SABINSA GROUP LIMITED, priority 2018, dated 2025)

Legend:
Type in all cases: in vivo
[1] = system: cortex of the brain; assay: Anti-oxidant parameters in brain cortex, kainic acid induced seizure rat model; details: KA seizure rat model, KA vs control
Method: (§1) Two-month-old male Sprague-Dawley rats were purchased from commercial vendor and housed at 25°±2° C., with the humidity maintained at 55%, wood chip bedding, on a 12:12 hour dark/light cycle, with free access to food and water. All animal procedures were carried out in accordance with NIH and Auburn University Animal Care and Use Committee guidelines. The rats were divided into four groups (1. Control, 2. Kainic acid (10 mg/kg), 3. LD (Low Dose)-composition containing OBC 250 mg/kg+Kainic acid, and 4. High Dose (HD)-composition containing OBC 500 mg/kg+Kainic acid). Composition containing OBC was mixed with powdered feed and administered orally for 2 weeks prior to kainic-acid administration. […] Neuroscience. 1982; 7(10):2525-36; Jinde et al., Lack of kainic acid-induced gamma oscillations predicts subsequent CA1 excitotoxic cell death. Eur J Neurosci. 2009; 30(6):1036-55; Medvedev et al., Kainic acid induces distinct types of epileptiform discharge with differential involvement of hippocampus and neocortex. Brain Res Bull. 2000; 52(2):89-98). Typically, Racine scores include the following stages:
For the complete management of epilepsy, it is imperative to reduce the incidence of seizures and also to effectively manage and correct the damage to the neurons which is induced by recurrent seizure activity. Drugs which reduced the incidence of seizures may not effectively manage and correct the clinical conditions resulting from seizures. Failure to correct and manage such effects results in neurodegeneration. The ability of a composition comprising oroxylin A, baicalein and chrysin (OBC) [250 mg/kg—low dose (LD) and 500 mg/kg—high dose (HD)] to management of neurotoxicity associated by epilepsy was tested in kainic acid induced seizure rat model. The biochemical parameters like ROS, hydrogen peroxide, protein carbonyl levels, nitrite levels, glutathione content, mitochondrial activity, and caspase activity were estimated in the cortex of the rat models.

[2] = system: caspase 3; assay: Caspase 3 activity in brain cortex, kainic acid induced seizure rat model; details: KA seizure rat model, KA vs control, OBC 250 and 500 mg/kg
Method: as §1
(§2) For the complete management of epilepsy, it is imperative to reduce the incidence of seizures and also to effectively manage and correct the damage to the neurons which is induced by recurrent seizure activity. […]

[3] = system: caspase 1; assay: Caspase 1 activity in brain cortex, kainic acid induced seizure rat model; details: KA seizure rat model, KA vs control, OBC 250 and 500 mg/kg
Method: as §1, §2

[4] = OBC 250 and 500 mg/kg oral 2 weeks

With `C=C(C)[C@H]1CN[C@H](C(=O)O)[C@H]1CC(=O)O` [Kainic acid] the “Glutathione levels (FIG. 7)” value ([1]; OBC 250 and 500 mg/kg) was “decreased”, the “Hydrogen peroxide levels (FIG. 4)” value [1, 4] was “significantly increased” and the “Lipid peroxidation (FIG. 5)” value [1, 4] was “significantly increased”. For the same molecule, the “Nitrite content (FIG. 3)” value [1, 4] was “significantly increased”, the “Protein carbonyl content (FIG. 6)” value [1, 4] was “significantly increased” and the “ROS generation (FIG. 2)” value [1, 4] was “significantly increased”. The “Activity of caspase 3 (FIG. 10)” value [2] was “significantly increased” and the “Activity of caspase 1 (FIG. 9)” value [3] was “significantly increased”.
